Assay results published in US4005219A, “Pharmaceutical compositions and their administration for the prophylaxis of asthma, hayfever and rhinitis” (Beecham Group Limited, priority 1974, dated 1977).

Test system: PCA response
Assay: Rat Passive Cutaneous Anaphylaxis (PCA) test
Format: in vivo, Wistar rats
Conditions: iv
Method: All of the 2-nitro indane-1,3-diones prepared in the preceeding Examples were submitted for biological testing. The test system was the Rat Passive Cutaneous Anaphylaxis (PCA) test described below in (II).
7, 681Serum containing heat labile homocytotropic antibody was raised in rats by a method similar to that used by Mota. (I. Mota Immunology 1964, 7, 681).
Male Wistar rats of 250-300g, were injected intraperitoneally with 0.5ml. of Bordetella pertussis vaccine (containing 4 × 10^10 dead oranism per ml. and subcutaneously with 0.5ml. of an emulsion of 100mg. of ovalbumin in 2ml of saline and 3ml of incomplete Freunds' adjuvant. Rats were bled by cardiac puncture on day 18, the blood was pooled and separated and serum stored at -20° and thawed only once before use.
II. The P.C.A. test was similar to that described by Ovary and Bier (A. Ovary and O. E. Bier. Proc. Soc. Exp. Biol. Med. 1952, 81, 584) and Goose and Blair (J. Goose and A. M. J. N Blair Immunology 1969, 16, 749).
0.1ml of each of six twofold serial dilutions of the serum in 0.9% saline were injected intradermally into separate sites on the shaved dorsal surface of 250-350g. Wistar rats. 72 hours later the animals were challenged by i.v. injection of 0.3ml of 1% ovalbumin mixed with 0.1ml of a 5% solution of pontamine sky blue dye both in isotonic saline buffered with pH. 7.2 Sorenson buffer (P.B.S.). The rats were killed after 20 minutes and the diameter of the blue wheals at the antibody injection sites were measured. The starting dilution of the serum was adjusted so that there was no response, after challenge, at the site of injection of the highest dilution and a maximum response at the lowest dilution. Typically six twofold serial dilutions of the serum from one-fourth to […] were used.
Compounds were tested for their ability to reduce the diameter of the wheals at the injection sites of dilutions of antibody which on all the controls have less than maximum response. Amounts of the compounds were administered to rats each amount to a test group of six animals at a specified time prior to intravenous challenge with ovalbumin. The diameters of the blue wheals which developed on the test group of animals were compared with those on a control group of six animals treated in the same way as the test group, but which had not received the compound under test.
% Inhibition of P.C.A. = 100 (1 - a/b)
a = The mean of the sum of the diameters of the wheals produced in the test group of animals at those antibody sites where all the control group of animals gave less than maximum response.
b = The mean of the sum of diameters of the wheals produced in the control group of animals at those antibody sites where all the animals in the group gave less than maximum response.
The preferred method of administration was as a solution of the test compound dissolved in pH 7.2 buffer and neutralised with sodium bicarbonate. For those compounds having insoluble sodium salts, the salts were isolated by reaction of the free nitro compound with 2.5N sodium hydroxide and the filtered sodium salt washed free of alkali with water. The dried salts were then administered as a suspension in 1% methyl cellulose.

[1] = 0 h, Time 0 mins (prior to i.v. ovalbumin challenge)
[2] = 0.5 h, Time 30 mins (prior to i.v. ovalbumin challenge)
[3] = 1 h, Time 60 mins (prior to i.v. ovalbumin challenge)

CC1=C(C)C[C@H]2C(=O)C([N+](=O)[O-])C(=O)[C@H]2C1 (relative stereo) [1(b), 5,6-Dimethyl-2-nitro cis-3a,4,7,7a-tetrahydroindane-1,3-dione]
inhibition in vivo at 25 mg/kg [1]: 16% | inhibition in vivo at 100 mg/kg [1]: 61% | inhibition in vivo at 25 mg/kg [2]: 6% | inhibition in vivo at 100 mg/kg [2]: 42%

CC1C[C@@H]2C(=O)C([N+](=O)[O-])C(=O)[C@@H]2CC1C (stereo partly drawn) [2(b), 5,6-Dimethyl cis-hexahydro-2-nitro indane-1,3-dione]
inhibition in vivo at 25 mg/kg [1]: 7% | inhibition in vivo at 100 mg/kg [1]: 31% | inhibition in vivo at 25 mg/kg [2]: 6% | inhibition in vivo at 100 mg/kg [2]: 37%

CC1C=CC(C)[C@@H]2C(=O)C([N+](=O)[O-])C(=O)[C@H]12 (stereo partly drawn) [3(b), 4,7-Dimethyl-2-nitro cis-3a,4,7,7a-tetrahydroindane-1,3-dione]
inhibition in vivo at 25 mg/kg [1]: -8% | inhibition in vivo at 100 mg/kg [1]: -8% | inhibition in vivo at 25 mg/kg [2]: 7% | inhibition in vivo at 100 mg/kg [2]: -1%

CC1CCC(C)[C@@H]2C(=O)C([N+](=O)[O-])C(=O)[C@H]12 (stereo partly drawn) [4(b), 4,7-Dimethyl cis-hexahydro-2-nitro indane-1,3-dione]
inhibition in vivo at 25 mg/kg [1]: 4% | inhibition in vivo at 100 mg/kg [1]: 19% | inhibition in vivo at 25 mg/kg [3]: 13% | inhibition in vivo at 100 mg/kg [3]: 11%

O=C(O)C1C=CC[C@@H]2C(=O)C([N+](=O)[O-])C(=O)[C@H]12 (stereo partly drawn) [5(b), 4-Carboxy-2-nitro cis-3a,4,7,7a-tetrahydroindane-1,3-dione]
inhibition in vivo at 25 mg/kg [1]: 2% | inhibition in vivo at 100 mg/kg [1]: -3% | inhibition in vivo at 25 mg/kg [2]: -1% | inhibition in vivo at 100 mg/kg [2]: -6%

O=C1C2C3C=CC(C3)C2C(=O)C1[N+](=O)[O-] (stereo not shown) [6(b), 4-Nitro tricyclo [5,2,1,0^2,6] dec-8-ene-3,5-dione]
inhibition in vivo at 25 mg/kg [1]: -9% | inhibition in vivo at 100 mg/kg [1]: 4% | inhibition in vivo at 25 mg/kg [3]: -9% | inhibition in vivo at 100 mg/kg [3]: 17%

O=C1C2C3CCC(C3)C2C(=O)C1[N+](=O)[O-] (stereo not shown) [7(b), 4-Nitro tricyclo [5,2,1,0^2,6] decane-3,5-dione]
inhibition in vivo at 25 mg/kg [1]: 8% | inhibition in vivo at 100 mg/kg [1]: 26% | inhibition in vivo at 25 mg/kg [2]: -3% | inhibition in vivo at 100 mg/kg [2]: 9%

CC1C=CC[C@@H]2C(=O)C([N+](=O)[O-])C(=O)[C@H]12 (stereo partly drawn) [8(b), 4-Methyl-2-nitro-cis-3a,4,7,7a-tetrahydroindane-1,3-dione]
inhibition in vivo at 25 mg/kg [1]: 12% | inhibition in vivo at 100 mg/kg [1]: 41% | inhibition in vivo at 25 mg/kg [2]: 13% | inhibition in vivo at 100 mg/kg [2]: 52%

COC(=O)C1C=CC[C@@H]2C(=O)C([N+](=O)[O-])C(=O)[C@H]12 (stereo partly drawn) [9(b), 4-Carbomethoxy-2-nitro-cis-3a, 4,7,7a-tetrahydroindane-1,3-dione]
inhibition in vivo at 25 mg/kg [1]: 2% | inhibition in vivo at 100 mg/kg [1]: 10% | inhibition in vivo at 25 mg/kg [2]: -9% | inhibition in vivo at 100 mg/kg [2]: -5%

CC(=O)OC1CCC[C@@H]2C(=O)C([N+](=O)[O-])C(=O)[C@H]12 (stereo partly drawn) [10(b), 4-Acetoxy-cis-hexahydro-2-nitro-indane-1,3-dione]
inhibition in vivo at 25 mg/kg [1]: 12% | inhibition in vivo at 100 mg/kg [1]: 11% | inhibition in vivo at 25 mg/kg [2]: 17% | inhibition in vivo at 100 mg/kg [2]: 20%

O=C1C2C3C=CC(CC3)C2C(=O)C1[N+](=O)[O-] (stereo not shown) [12(b), 4-Nitro tricyclo [5,2,2,0^2,6] undec-8-ene-3,5-dione]
inhibition in vivo at 25 mg/kg [1]: 0% | inhibition in vivo at 100 mg/kg [1]: -3% | inhibition in vivo at 25 mg/kg [2]: 29% | inhibition in vivo at 100 mg/kg [2]: 32%

O=C1C2C3CCC(CC3)C2C(=O)C1[N+](=O)[O-] (stereo not shown) [13(b), 4-Nitro tricyclo [5,2,2,0^2,6] undecane-3,5-dione]
inhibition in vivo at 25 mg/kg [1]: 14% | inhibition in vivo at 100 mg/kg [1]: 8% | inhibition in vivo at 25 mg/kg [2]: 13% | inhibition in vivo at 100 mg/kg [2]: 29%

CC1CCC[C@@H]2C(=O)C([N+](=O)[O-])C(=O)[C@H]12 (stereo partly drawn) [II(b), 4-Methyl-2-nitro-cis-hexahydroindane-1,3-dione]
inhibition in vivo at 25 mg/kg [1]: -13% | inhibition in vivo at 100 mg/kg [1]: 11% | inhibition in vivo at 25 mg/kg [2]: -8% | inhibition in vivo at 100 mg/kg [2]: 17%
